Assay results reported in publication PMC5987880 (The Journal of General Physiology, 2018).
Values joined by “and” are separate entries in the source; they are usually repeats but may differ in a detail not shown here. Equal entries are not always repeated.

How the values were obtained:
isolated CNBD of MloK1 = conditions: read-out: Kd for isolated CNBD of MloK1; ref Cukkemane et al., 2007; cited from earlier work
HCN4 = conditions: read-out: Kd for HCN4; ref Akimoto et al., 2014; cited from earlier work
[1] = molecular target: SthK, cyclic nucleotide-gated (CNG) channel from Spirochaeta thermophila, final expression construct SthK_(Δ421–430) (Spirochaeta thermophila); assay: cross-linking
SthK [2] = molecular target: T1, SthK (Spirochaeta thermophila, UniProt G0GA88); assay: Single-channel recordings of purified SthK in horizontal lipid bilayers; format: biochemical
T1 sequence (G0GA88 1-420): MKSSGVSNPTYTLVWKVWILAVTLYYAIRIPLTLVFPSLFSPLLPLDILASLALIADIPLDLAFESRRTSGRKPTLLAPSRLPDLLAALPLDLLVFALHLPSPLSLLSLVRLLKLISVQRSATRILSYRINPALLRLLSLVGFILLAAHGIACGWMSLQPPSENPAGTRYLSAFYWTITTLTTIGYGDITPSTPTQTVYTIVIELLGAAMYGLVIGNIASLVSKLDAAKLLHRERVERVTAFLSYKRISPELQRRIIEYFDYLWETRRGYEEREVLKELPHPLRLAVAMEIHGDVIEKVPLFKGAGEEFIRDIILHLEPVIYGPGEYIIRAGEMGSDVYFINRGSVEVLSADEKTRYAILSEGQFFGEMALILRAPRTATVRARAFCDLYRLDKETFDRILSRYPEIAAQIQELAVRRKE

SthK [3] = molecular target: T1, SthK; assay: Sequential-mixing stopped-flow fluorescence Tl+ flux assay with SthK liposomes; format: biochemical
SthK [4] = molecular target: T1, SthK; assay: 86Rb+ flux; format: biochemical; conditions: 200 µM cyclic nucleotide, 5:3:2 DOPC:POPG:cardiolipin liposomes
SthK [5] = molecular target: T1, SthK; conditions: at 100 mV; ref Brams et al. (2014); cited from earlier work

Nc1ncnc2c1nc(SCCNc1ccc([N+](=O)[O-])c3nonc13)n2[C@@H]1O[C@@H]2COP(=O)(O)O[C@H]2[C@H]1O [fcAMP, 8-NBD-cAMP]
Kd (isolated CNBD of MloK1): ~0.0159 µM | Kd (HCN4): 5 µM

SthK, cyclic nucleotide-gated (CNG) channel from Spirochaeta thermophila, final expression construct SthK_(Δ421–430) (natural protein)
stoichiometry N [1]: 4

Nc1nc2c(ncn2[C@@H]2O[C@@H]3COP(=O)(O)O[C@H]3[C@H]2O)c(=O)[nH]1 [cGMP, cyclic guanosine monophosphate]
Open probability Po with cGMP (SthK [2]; cGMP alone): < 0.003

Nc1ncnc2c1ncn2[C@@H]1O[C@@H]2COP(=O)(O)O[C@H]2[C@H]1O [cAMP, cyclic adenosine monophosphate]
Open probability Po at 0 mV (SthK [2]; cAMP alone, 0 mV): ≈ 0.1 | Hill coefficient nH, bilayer recordings (SthK [2]; open probability at 100 mV (Eq. 10)): 3 | Time to maximum activation of SthK (SthK [3]; 200 µM cAMP): 2 s and 1 to 2 s | Activation time constant τ1 (SthK [3]; 200 µM cAMP, delay 0.015-10 s, sum of two exponentials (amplitude 0.45)): ≈ 0.05 s | Activation time constant τ2 (SthK [3]; 200 µM cAMP, delay 0.015-10 s, sum of two exponentials (amplitude 0.55)): ≈ 1.04 s | Slow activation phase (as stated in the Discussion) (SthK [3]; activation kinetics of SthK): ~2 s | 86Rb+ uptake through SthK liposomes (SthK [4]): robust cAMP-dependent activity | Open probability Po in oocytes (SthK [5]): ≈ 0.14
